This note sets out measurements from PubChem BioAssay AID449750 (Broad Institute, 2010).

Calls of active or inactive are those of the source. The rule behind the calls is not given here.

The experiment is described as follows: non-covalent RecA intein splicing inhibitors, dose response, biochemical, cell-free, fluorescence, secondary screen (AID 449750).
With `Cc1nn(-c2ccccc2)c(Cl)c1CN(C(=O)CCl)c1ccc(Cl)cc1`, the AC50 (as a rule, the concentration giving half of the maximal activity seen) was 1.28 µM.
For `Cc1[nH]nc2c1C1(CCN(C(=O)OCc3ccccc3)CC1)C(C#N)=C(N)O2`, the AC50 was > 38 µM (inactive).
To `CCc1[nH]nc2c1C1(CCN(C(=O)c3ccccc3)CC1)C(C#N)=C(N)O2` belongs 25 µM.
With `CN1C=C/C(=C\c2cc[n+](C)c3ccccc23)c2ccccc21`, the AC50 was 29.3 µM.
The value for `COc1ccccc1Oc1cc(C#N)c(C#N)cc1-n1nnc2ccccc21` was 16.5 µM; that for `CCc1ccc(NC(=O)C(=O)N/N=C(\C)CC(=O)Nc2ccccn2)cc1` was > 38 µM (inactive).
With `CCOc1ccc(Cl)cc1C(c1c(C)[nH][nH]c1=O)c1c(C)[nH][nH]c1=O`, the concentration at half-maximal activity (AC50) is 12 µM.
For `CN(CCO)c1cc(Sc2nc3ccccc3s2)c2nonc2c1[N+](=O)[O-]`, the concentration at half-maximal activity (AC50) was 7.53 µM.
The value for `O=C(c1ccc2nc(Cc3cccc(Cl)c3)oc2c1)N1CCC(O)CC1` was > 38 µM (inactive); that for `Cc1nn(-c2cccc(Cl)c2)c2c1C(c1cccnc1)C(C#N)=C(N)O2` (stereo not given) was 34.6 µM; that for `c1ccc(-c2nnc(-c3ccccn3)nc2NC2CCCCC2)cc1` was 7.98 µM.
Turning to `COc1ccc(C(=O)n2nnc3ccccc32)cc1Br`, the AC50 is > 38 µM (inactive).
On to `COC(=O)c1ccccc1Sc1ncnc2onc(C)c12`, for which the AC50 was > 38 µM (inactive).
As to `O=[N+]([O-])c1ccc2nc(Cl)nc(-c3ccccc3)c2c1`, the AC50 is > 38 µM (inactive).
To `CC(C)(C)c1csc(Sc2ccc([N+](=O)[O-])cn2)n1` belongs 14.2 µM; to `COc1ccc(-c2[nH]nc3c2C(c2ccncc2)C(C#N)=C(N)O3)cc1` (stereo not given), 39.9 µM; to `CCOc1cc(C(c2c(C)[nH][nH]c2=O)c2c(C)[nH][nH]c2=O)ccc1OCc1ccc([N+](=O)[O-])cc1`, 6.09 µM.
With `CCc1ccc(NC(=O)CSc2ccc(-c3sc(C)nc3C)nn2)cc1`, the AC50 was > 38 µM (inactive).
On to `CC1=NN(c2ccc(C)c(C)c2)C(=O)C1C(c1cccc(O)c1)C1C(=O)N(c2ccc(C)c(C)c2)N=C1C` (stereo not given), for which the AC50 was 3.38 µM.
For `COc1ccccc1-c1cn[nH]c(=S)n1`, the AC50 was > 38 µM (inactive).
With `CCCCN(C(=O)c1cccc2c(=O)c(C)c(-c3ccccc3)oc12)c1ccccc1`, the half-maximal activity concentration (AC50) is 6.5 µM.
To `Cc1cc(F)ccc1S(=O)(=O)N(C(=O)c1ccncc1)c1ccc(OC(=O)c2ccncc2)cc1` belongs > 38 µM (inactive); to `O=c1c2c([nH]n1-c1ccccc1)CCSC2`, 36.5 µM; to `COCc1[nH]nc2c1C(c1ccc(OC)cc1)C(C#N)=C(N)O2` (stereo not given), 32.2 µM.
Consider `N#Cc1ncc(-c2ccc3c(c2)OCCOCCOCCOCCO3)nc1C#N`, for which the AC50 is > 38 µM (inactive).
For `C/C(CC(=O)Nc1ccc(Cl)cn1)=N\NC(=O)Cc1cccs1`, the AC50 was > 38 µM (inactive).
`N#C/C(=C\c1ccc(O)c([N+](=O)[O-])c1)c1nc2ccccc2s1`: the AC50 was 33.8 µM.
To `Cc1ccc(S(=O)(=O)N[C@@H](CCCCN)C(=O)CCl)cc1` belongs > 38 µM (inactive).
As for `CC(C)N(CC(=O)Nc1ccc(Cl)cc1C(F)(F)F)C(=O)CCl`, the AC50 is 12.9 µM.
The value for `CCOc1cc(/C=C(/C#N)C(=O)Nc2ccc(O)cc2)cc(Br)c1O` was > 38 µM (inactive).
With `Cc1ccc([N+](=O)[O-])cc1S(=O)(=O)N(C(=O)c1ccncc1)c1ccc2oc3c(c2c1)CCCC3`, the AC50 is > 38 µM (inactive).
On to `Cc1cc(C)c(S(C)(=O)=O)c(Oc2cccc(C(F)(F)F)c2)n1`, for which the AC50 was > 38 µM (inactive).
Take `COc1ccc(S(=O)(=O)/N=C2\C=C(Nc3ccc(O)cc3)C(=O)c3ccccc32)cc1`: the AC50 was 2.53 µM.
In the case of `COc1cc2c(cc1OC)C(c1cc(Br)ccc1F)N(C(=O)CCl)CC2` (stereo not given), the half-maximal activity concentration (AC50) was 2.43 µM.
For `O=C(Nc1ncc([N+](=O)[O-])s1)c1ccco1`, the AC50 was > 38 µM (inactive).
As for `Cc1cc(C)cc(S(=O)(=O)c2cnc3ccccc3n2)c1`, the AC50 was > 38 µM (inactive).
The value for `CCOC(=O)C1CCN(Cc2cc(C(C)C)c(O)c(C(C)C)c2)CC1` was > 38 µM (inactive); that for `Cc1ccc(S(=O)(=O)/N=C2/C=C(C3C(=O)CC(C)(C)CC3=O)C(=O)c3ccccc32)cc1` was > 38 µM (inactive); that for `COc1ccc(/C=C/C(=O)c2ccccc2)cc1COc1ccc(F)cc1` was 2.18 µM.
To `CCOC(=O)CSc1nnc(NCC(=O)OC)c(=O)[nH]1` belongs > 38 µM (inactive); to `CCc1ccc(S(=O)(=O)/N=C2\C=C(NS(=O)(=O)c3ccccc3)C(=O)c3ccccc32)cc1`, 4.45 µM; to `CCOc1cc(C2C(C#N)=C(N)Oc3n[nH]c(CC)c32)ccc1OCCN1CCOCC1` (stereo not given), > 38 µM (inactive).
The value for `COc1nc(NC(C)C)nc(N(C#N)CN2C(=O)c3ccccc3S2(=O)=O)n1` was > 38 µM (inactive).
Take `COc1ccc(-c2csc(CCN3N=C(C)CC3=O)n2)cc1`: the half-maximal activity concentration (AC50) was 10.1 µM.
The value for `Cc1ccc(CNC(=O)CCN2C(=O)[C@@H]3Cc4ccccc4CN3C2=O)cc1` was > 38 µM (inactive).
Regarding `C/C(=C/CCC(C)[C@H]1CC[C@@]2(C)C3=C(CC[C@]12C)[C@@]1(C)CCC(=O)C(C)(C)[C@@H]1CC3)C(=O)O` (stereo not given in full), the half-maximal activity concentration (AC50) is 10.7 µM.
On to `CC(=O)Oc1ccc(/C=C2/C(=O)N(c3ccccc3)N=C2C)cc1`, for which the concentration at half-maximal activity (AC50) was 4.09 µM.
For the compound `O=C(Oc1ccc2ccccc2c1)c1ccco1`, the AC50 was > 38 µM (inactive).
Regarding `Cc1cc(C)n2nc(CNS(=O)(=O)c3c(F)c(F)c(F)c(F)c3F)nc2n1`, the AC50 is > 38 µM (inactive).
In the case of `Cc1nc2ccccc2nc1N/N=C/c1ccc(O)cc1O`, the AC50 is > 38 µM (inactive).
As for `O=C(NC1CCCC1)C(c1ccc(F)cc1)N(Cc1ccc(F)cc1)C(=O)CCl` (stereo not given), the concentration at half-maximal activity (AC50) is 2.96 µM.
In the case of `Cc1ccc(CS(=O)(=O)c2ncc(Cl)c(C(=O)Nc3nnc(C)s3)n2)cc1`, the AC50 was > 38 µM (inactive).
The value for `Cc1ccc(NC(=O)C2=C(c3ccccc3)S(=O)(=O)CCS2(=O)=O)cc1` was > 38 µM (inactive).
For the compound `O=C(Nc1ccccc1)C1=C(c2ccccc2)S(=O)(=O)CCS1(=O)=O`, the AC50 was > 38 µM (inactive).
Regarding `CC1=NN(c2ccc(F)cc2)C(=O)C1C(c1cccc(O)c1)c1c(C)[nH]n(-c2ccc(F)cc2)c1=O` (stereo not given), the AC50 was 2.89 µM.
Consider `O=[N+]([O-])c1cc(S(=O)(=O)C(F)(F)F)ccc1Sc1nc2ccccc2[nH]1`, for which the AC50 was 16 µM.
As to `CC(C)(C)c1ccc(/C=C(\c2nc3ccccc3[nH]2)S(=O)(=O)c2ccccc2)cc1`, the concentration at half-maximal activity (AC50) was 39.1 µM.
In the case of `CC(C)[n+]1ccn(C2=C([O-])c3ccccc3C(=O)/C2=N\S(=O)(=O)c2ccccc2)c1`, the half-maximal activity concentration (AC50) is 8.08 µM.
To `Oc1[nH]c2ccccc2c1N=NC(=S)N1CCOCC1` belongs > 38 µM (inactive); to `CCOc1cc(C2C(C#N)=C(N)Oc3n[nH]c(-c4ccccc4)c32)ccc1O` (stereo not given), 20.6 µM; to `CNC(=O)c1nnsc1S(=O)c1ccc(Cl)cc1` (stereo not given), > 38 µM (inactive).
On to `O=C1NCCCC2c3c(cc(Br)c(O)c3Br)OC12N1CCCCC1` (stereo not given), for which the AC50 is > 38 µM (inactive).
As to `O=[N+]([O-])c1cc([N+](=O)[O-])c2oc(-c3ccccc3)c(Br)c2c1O`, the AC50 is 2.04 µM.
As for `CC(=O)NC(=S)c1c(N)n(Cc2ccccc2)c(=O)n(C)c1=O`, the AC50 was > 38 µM (inactive).
As for `COc1ccc(C=C(c2nc3ccccc3s2)c2nc3ccccc3s2)cc1O`, the AC50 is 3.04 µM.
For the compound `CC1=C(C(=O)OC(C)C)C2(O)C(=O)c3ccccc3C2(O)N1` (stereo not given), the AC50 was 9.7 µM.
To `O=[N+]([O-])/C(C(Cl)=C(Cl)Cl)=C(/Sc1ccccc1)N1CCCCC1` belongs > 38 µM (inactive); to `Cc1cc2nc(Sc3c([N+](=O)[O-])nc(C)n3Cc3ccccc3)[nH]c2cc1C`, > 38 µM (inactive); to `CCN1C(=O)c2c(C)nc3ccccc3c2C1=O`, > 38 µM (inactive).
The value for `Cc1ccc(S(=O)(=O)N(C(=O)c2ccncc2)c2ccc(OC(=O)c3ccncc3)c3ccccc23)cc1` was 4.13 µM; that for `COc1ccc(C(=O)N/N=C\c2coc3ccc(Cl)cc3c2=O)cc1` was > 38 µM (inactive).
On to `O=C(NCc1ccc2c(c1)OCO2)c1nc(S(=O)(=O)Cc2ccccc2F)ncc1Cl`, for which the AC50 is > 38 µM (inactive).
Take `CC1=NN(Cc2ccccc2)C(=O)C1C(c1ccncc1)C(C#N)C#N` (stereo not given): the AC50 was > 38 µM (inactive).
In the case of `Cc1c(/C=N/Nc2nc3ccccc3[nH]2)c2ccccc2n1C`, the half-maximal activity concentration (AC50) is 28.1 µM.
In the case of `CC(C)(C)c1ccc(C(=O)Cn2cnnc2C#N)cc1`, the AC50 is > 38 µM (inactive).
As to `Cn1cnc([N+](=O)[O-])c1S(=O)(=O)c1ccc(Cl)cc1`, the AC50 was > 38 µM (inactive).
The value for `CCOc1ccccc1C1C(C#N)=C(N)Nc2onc(-c3ccccc3)c21` (stereo not given) was 33.4 µM; that for `Cc1ccc(OC(=O)c2ccc([N+](=O)[O-])cc2Cl)cn1` was > 38 µM (inactive); that for `Cn1nc([N+](=O)[O-])nc1Sc1nnc(-c2ccccc2)o1` was > 38 µM (inactive).
For `C/C(=N\NC(=O)Cc1cc(=O)[nH][nH]1)c1cccc([N+](=O)[O-])c1`, the AC50 is 30.5 µM.
`C/C(CC(=O)Nc1cc(C)ccn1)=N\NC(=O)c1ccc(C)cc1`: the AC50 was > 38 µM (inactive).
Regarding `CNCC(O)CN(c1ccccc1)c1ccccc1` (stereo not given), the half-maximal activity concentration (AC50) is 10.5 µM.
The value for `CCCc1nn(C)c2c1C(c1cccnc1)C(C#N)=C(N)O2` (stereo not given) was > 38 µM (inactive).
Consider `CCc1ccc(Nc2n[n+](-c3ccccc3)c(-c3c(Cl)cccc3Cl)s2)cc1`, for which the AC50 was 8.26 µM.
For `CC(=O)NC1N=C(C)N(c2ccccc2)C1=O` (stereo not given), the AC50 is 33.7 µM.
Take `CC1CCc2c(sc3nc(C(C)(C)C)nc(N4CCN(C(=O)CCl)CC4)c23)C1` (stereo not given): the concentration at half-maximal activity (AC50) was 2.61 µM.
For the compound `N#CCn1c(CCl)nc2ccccc2c1=O`, the AC50 was > 38 µM (inactive).
On to `Cc1ccc(S(=O)(=O)Nc2c(O)ccc3ccccc23)cc1`, for which the concentration at half-maximal activity (AC50) was 8.05 µM.
For the compound `Cc1ccccc1C(CC(=O)c1cccs1)C(C#N)C#N` (stereo not given), the AC50 was 6.53 µM.
The value for `CCC(C)[C@@H](NC(=O)OC(C)(C)C)c1nnc(S(=O)(=O)Cc2cccc(C)c2)o1` (stereo not given in full) was > 38 µM (inactive).
